Experimental data as given in paper PMC12057336 (Antimicrobial Agents and Chemotherapy, 2025).
Where two headings read alike, the source gives them in different places.

How the values were obtained:
[1] = test system: primary rat hepatocytes; settings: for substrate stability in control incubation: absence of hepatocytes; for substrate stability in control incubation / remaining percentage: 1 µM; for remaining percentage: freshly isolated normal rat hepatocytes; for remaining percentage / decrease of formation compared to normal rat hepatocytes: 6 h; for decrease of formation compared to normal rat hepatocytes: linezolid 1 µM
Description: Primary rat hepatocytes were isolated from normal, CCl4-induced, and 5/6 Nx rats according to the previously described two-step collagenase method ([36]). Rats were anesthetized with urethane (1 g/kg), their abdomens were opened, and their portal veins were cannulated with a needle. The liver was perfused with HBSS solution (without calcium and magnesium ions) containing 5 mM EGTA at a rate of 50–60 mL/min using a peristaltic pump until the blood in the liver was removed. HBSS solution containing 7.5 mg/50 mL collagenase was perfused for 20 min until the liver was completely softened and the surface collapsed. The liver was gently removed and placed in a precooled HBSS solution containing 10% FBS. Hepatocytes were eluted and centrifuged at 500 × g for 5 min, and the supernatant was removed to obtain primary rat hepatocytes. Isolated primary rat hepatocytes were washed three times and suspended in DMEM containing 10% FBS, 100 µg/mL streptomycin, 100 U/ml penicillin, and 10 µg/mL insulin at pH 7.65.
Freshly isolated rat hepatocytes at a density of 1.0 × 10^6 cells/well were placed in plates pre-coated with collagen and incubated for 18–24 h in a humidified incubator at 37°C and 5% CO2. […] Control incubations were performed in the absence of hepatocytes to test the substrate stability. Three replicate samples (1 mL each) were collected after 1, 2, 4, and 6 h of incubation. Then, 800 µL of methanol was immediately added, and the samples were transferred to a freezer (−20°C) to terminate metabolism. Hepatocytes were quickly washed three times with ice-cold HBSS and then lysed by the addition of 300 µL of purified water.
An AB Sciex 4000 Mass Spectrometer (AB Sciex, Framingham, MA, USA) and Shimadzu LC 20 series (Shimadzu, Kyoto, Japan) were used for HPLC-MS/MS. […] The Phenomenex Synergi Hydro-RP column (30 mm × 2 mm, 4 µm, Phenomenex Inc., Torrance, CA, USA) was used for chromatographic separation. The mobile phase consisted of 0.1% (vol/vol) formic acid in water (A) and 0.1% (vol/vol) formic acid in acetonitrile (B). The gradient conditions were as follows: 0–1.4 min, 15%–80% B; 1.4–1.8 min, 80% B; 1.8–1.81 min, return to 15% B; 1.81–2.1 min, equilibrium. The flow rate was 450 µL/min. Data acquisition and analysis were performed using the Analyst software (version 1.4.1, AB Sciex).
(§1) Atotal is the total cumulative amount excreted in urine over 24 h. D is the administered dose. The scale factor is 4,680 (10^6 cells/kg). All data are expressed as mean ± standard deviation (SD). Statistical analysis was performed using Student’s two-tailed unpaired t-test or nonparametric Mann-Whitney U test with SPSS Statistics 19.0 (SPSS Inc., Chicago, IL, USA). Statistical significance was set at P < 0.05.

[2] = cited from earlier work
[3] = Tissue distribution after i.g. or i.v. linezolid in control, CCl4-induced and 5/6 Nx rats; assay type: in vivo, rat; settings: after i.g. or i.v. linezolid; LLOQ 0.25 mg/L
Source text: These two groups were further divided into the following three subgroups (n = 4): control rats, CCl4-induced rats, and 5/6 Nx rats. […] The rats were euthanized immediately after blood sampling. The brain, heart, lungs, liver, kidneys, and small intestine were collected. The collected tissues were washed and homogenized in normal saline (three-fold volume of each sample weight) using a multi-sample tissue grinder (Tissuelyser-48L; Shanghai Jingxin Industrial Development Co. Ltd., Shanghai, China). After centrifugation of the homogenate samples at 12,000 × g for 10 min at 4°C, the supernatants were stored at −80°C.
The flow rate was 1.0 mL/min.
Then, 5 µL of the supernatant was analyzed.

[4] = test system: megakaryocytic cells; settings: cited from earlier work
[5] = in vivo; settings: rat, in vivo; for half-life: t1/2
Source text: The control group rats were intraperitoneally injected with equal volumes of soybean oil. […] The upper and lower poles of the left kidney were removed under urethane anesthesia (1 g/kg; administered by i.p. injection). One week later, the right kidney was completely excised. Rats in the control group underwent a sham operation ([35]). Serum creatinine (CREA), blood urea nitrogen (BUN), aspartate aminotransferase (AST), alanine aminotransferase (ALT), alkaline phosphatase (ALP), lactate dehydrogenase (LDH), and total bilirubin (TBIL) levels were measured using commercial kits (Shanghai Enzyme-linked Biotechnology Co., Ltd., Shanghai, China) according to the protocols described by the manufacturer before pharmacokinetic experiments.
The rats were first divided into two groups: i.v. or i.g. administration groups. These two groups were further divided into the following four subgroups (n = 5): soybean oil-treated control rats, CCl4-induced rats, sham-operated control rats, and 5/6 Nx rats. […] Blood samples (200 µL) were collected from the retro-orbital venous plexus into heparinized tubes at 0 (pre-dose), 0.25, 0.5, 0.75, 1, 2, 3, 4, 6, 8, 12, and 24 h after i.g. administration, and at 0 (pre-dose), 0.083, 0.25, 0.5, 0.75, 1, 2, 3, 4, 6, 8, 12, and 24 h after i.v. administration. Plasma samples were separated by centrifugation at 6,000 × g for 5 min at 4°C and stored at −80°C until further analysis using HPLC.
Chromatographic separation was performed using the SinoPak BEH T-C18 column (4.6 mm × 150 mm, 5 µm, Hi-tech Zone, China) at 35°C. A photodiode array detector was set at a wavelength of 254 nm. The mobile phase consisted of 0.1% (vol/vol) formic acid in water (A) and acetonitrile (B). The gradient conditions were as follows: 0–4.0 min, 14%–86% B; 4.0–5.0 min, […]; 5.0–5.7 min, return to 14% B; 5.7–8.0 min, equilibrium. The flow rate was 1.0 mL/min.
Plasma and tissue homogenate samples (100 µL) were mixed with 10 µL of IS (50.0 mg/L) and 200 µL of acetonitrile, followed by vortex-mixing for 3 min. The mixture was centrifuged at 15,000 × g for 15 min at 4°C. Then, 5 µL of the supernatant was analyzed. The urine samples were diluted and directly injected for measurement.
The area under the plasma concentration-time curve from 0 to infinity (AUC0-∞), time to maximum concentration (tmax), Cmax, t1/2, CL, and Vd were calculated by non-compartmental model analysis using the Phoenix 8.1.0 WinNonlin software (Pharsight Corp, Princeton, NJ, USA). The renal clearance (CLr), in vitro hepatic clearance (CLint, in vitro), and bioavailability (F) were calculated using the following equations:
F (%) = Div×AUC0−∞, ig/Dig×AUC0−∞, iv
as §1

[6] = Serum biochemical parameters of CCl4-induced rats; assay type: in vivo, rat

Which “substrate stability in control incubation” value [1] does the source give for O=c1ccc2ccc(O)cc2o1 [7-hydroxycoumarin] here?
The value was “No reductions”.

What about the remaining percentage [1] of the same compound?
Its remaining percentage is < 5%.

Which “accumulation in patients with renal failure” value [2] does the source give for CC(=O)NC[C@H]1CN(c2ccc(N(CCO)CC(=O)O)c(F)c2)C(=O)O1 [PNU-142586] here?
Its value is “accumulated”.

And the “share of dosed linezolid in the urine” value ([2]; humans)?
The value was “more than 30%”.

What about the “decrease of formation compared to normal rat hepatocytes” value ([1]; 5/6 Nx rat hepatocytes) of the same compound?
Its value is 28.9%.

What about the “decrease of formation compared to normal rat hepatocytes” value ([1]; hepatocytes from CCl4-induced rats) of the same compound?
The value was 95.6%.

And the “detection in brain, heart, lung, liver, kidney, or small intestine tissues” value [3]?
Its value is “No PNU-142586 was detected”.

And the “cytotoxic effects on platelet precursor cell lines” value [4]?
Its value is “cytotoxic effects”.

And the “decrease of CLr in comparison to sham-operated control rats” value ([5]; Sprague-Dawley)?
The value was 33.3%.

And the “share of the total plasma concentrations” value ([5]; Sprague-Dawley)?
Its value is 5.6–8.5%.

What about the “AUC0-∞ relative to sham-operated control rats” value ([5]; Sprague-Dawley, iv) of the same compound?
The value was 2.82 fold.

What about the “decrease of AUC0-∞ compared to soybean oil-treated control rats” value ([5]; Sprague-Dawley, iv) of the same compound?
Its value is 13.6%.

And the “decrease of CLr in comparison to sham-operated control rats” value ([5]; Sprague-Dawley, iv)?
The value was 33.3%.

And the “t1/2 relative to control rats” value ([5]; Sprague-Dawley, iv)?
Its value is 1.41 fold.

And the “t1/2 relative to sham-operated control rats” value ([5]; Sprague-Dawley, iv)?
The value was 1.53 fold.

And the Cmax ([5]; Sprague-Dawley, iv, 25 mg/kg)?
Its Cmax is 1690 ± 230 ng/mL.

What about the half-life ([5]; Sprague-Dawley, iv, 25 mg/kg) of the same compound?
The half-life was 2.11 ± 0.42 h.

And the “AUC0-∞ relative to sham-operated control rats” value ([5]; Sprague-Dawley, po)?
Its value is 1.88 fold.

And the “decrease of AUC0-∞ compared to soybean oil-treated control rats” value ([5]; Sprague-Dawley, po)?
The value was 10.4%.

What about the “t1/2 relative to control rats” value ([5]; Sprague-Dawley, po) of the same compound?
Its value is 1.32 fold.

And the “t1/2 relative to sham-operated control rats” value ([5]; Sprague-Dawley, po)?
The value was 1.15 fold.

What about the Cmax ([5]; Sprague-Dawley, po, 63 mg/kg) of the same compound?
The Cmax was 1860 ± 210 ng/mL.

What about the half-life ([5]; Sprague-Dawley, po, 63 mg/kg) of the same compound?
Its half-life is 4.31 ± 0.52 h.

And the Tmax ([5]; Sprague-Dawley, po, 63 mg/kg, tmax)?
Its Tmax is 2.8 ± 0.45 h.

What about the “cumulative urinary excretion rate” value [5] of the same compound?
The value was 3.5%.

Which “serum ALT relative to soybean oil-treated control rats” value [6] does the source give for ClC(Cl)(Cl)Cl [CCl4, Carbon tetrachloride] here?
The value was 6.92 fold.

And the “serum AST relative to soybean oil-treated control rats” value [6]?
Its value is 10.7 fold.

And the “serum LDH relative to soybean oil-treated control rats” value [6]?
Its value is 1.86 fold.

What about the “serum TBIL relative to soybean oil-treated control rats” value [6] of the same compound?
Its value is 8.40 fold.

And the ALP ([6]; 2.5 mL/kg i.p., 24 h, serum)?
Its ALP is 257.1 ± 94.3 U/L.

What about the ALT ([6]; 2.5 mL/kg i.p., 24 h, serum) of the same compound?
The ALT was 418.8 ± 129.4 U/L.

What about the AST ([6]; 2.5 mL/kg i.p., 24 h, serum) of the same compound?
The AST was 2399.5 ± 203.2 U/L.

What about the CREA ([6]; 2.5 mL/kg i.p., 24 h, serum) of the same compound?
The CREA was 17.1 ± 7.3 µmol/L.

What about the LDH ([6]; 2.5 mL/kg i.p., 24 h, serum) of the same compound?
Its LDH is 2477.6 ± 220.8 U/L.

What about the TBTL ([6]; 2.5 mL/kg i.p., 24 h, serum) of the same compound?
Its TBTL is 4.2 ± 2.0 µmol/L.

Which results are given for C[C@]12CC[C@H]3[C@@H](CCC4=CC(=O)CC[C@@]43C)[C@@H]1CC[C@@H]2O [testosterone]?
substrate stability in control incubation [1]: No reductions; remaining percentage [1]: less than 2%
